Reference: the supplement of paper PMC10307832

Legend:
Experiment in all cases: relative viability (nuclei count vs DMSO), 5 days (fraction); higher = more cells survive
[1] = compound: O=C1NC(=O)[C@@H](c2cn3c4c(cccc24)CCC3)[C@@H]1c1c[nH]c2ccccc12 [Tivantinib] + CC(=O)c1c(C)c2cnc(Nc3ccc(N4CCNCC4)cn3)nc2n(C2CCCC2)c1=O [Palbociclib] (partner 0.5 µM)
Procedure, shortened: (§1)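 Lung cancer cell lines in 1536-well plates were dosed by pin tool the day after seeding, either with one drug alone or with a fixed anchor-drug dose plus five library-drug doses (not always all listed) in √10 steps. After 5 days, cells were fixed and their nuclei stained in one step (final 0.05% Triton X-100, 1% formaldehyde, 1 ug/ml Hoechst), then counted on 4× images. Relative viability is the nuclei count in treated wells divided by that in vehicle wells. Values are medians of duplicate plates.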

[2] = compound: O=C1NC(=O)[C@@H](c2cn3c4c(cccc24)CCC3)[C@@H]1c1c[nH]c2ccccc12 [Tivantinib] + C[C@]1(O)C[C@@H](c2nc(-c3ccc4ccc(-c5ccccc5)nc4c3)c3c(N)nccn32)C1 [Linsitinib] (partner 1 µM)
Procedure, shortened: as §1

[3] = compound: CC1(COc2ccc3c(c2)ncn3-c2ccc3cccc(N4CCC(N)CC4)c3n2)COC1 [Crenolanib] + Cc1cc(Nc2cc(N3CCN(C)CC3)nc(Sc3ccc(NC(=O)C4CC4)cc3)n2)n[nH]1 [Tozasertib] (partner 0.1 µM)
Procedure, shortened: as §1

[4] = compound: O=C1NC(=O)[C@@H](c2cn3c4c(cccc24)CCC3)[C@@H]1c1c[nH]c2ccccc12 [Tivantinib] + CC1(C)CCC(c2ccc(Cl)cc2)=C(CN2CCN(c3ccc(C(=O)NS(=O)(=O)c4ccc(N[C@H](CCN5CCOCC5)CSc5ccccc5)c(S(=O)(=O)C(F)(F)F)c4)cc3)CC2)C1 [Navitoclax] (partner 0.5 µM)
Procedure, shortened: as §1

Cell Line | relative viability ([1]; first compound 0.01 µM) | relative viability ([1]; first compound 0.03162 µM) | relative viability ([1]; first compound 0.1 µM) | relative viability ([1]; first compound 0.3162 µM) | relative viability ([2]; first compound 0.01 µM) | relative viability ([2]; first compound 0.03162 µM) | relative viability ([2]; first compound 0.1 µM) | relative viability ([2]; first compound 0.3162 µM) | relative viability ([3]; first compound 0.01 µM) | relative viability ([3]; first compound 0.03162 µM) | relative viability ([3]; first compound 0.1 µM) | relative viability ([3]; first compound 0.3162 µM) | relative viability ([3]; first compound 1 µM) | relative viability ([4]; first compound 0.01 µM) | relative viability ([4]; first compound 0.03162 µM) | relative viability ([4]; first compound 0.1 µM) | relative viability ([4]; first compound 0.3162 µM)
LC-2-ad | 0.46 | 0.442 | 0.515 | 0.456 | 0.917 | 0.772 | 0.837 | 0.741 | 0.495 | 0.435 | 0.447 | 0.34 | 0.385 | 0.375 | 0.436 | 0.438 | 0.308
NCI-H441 | 0.224 | 0.209 | 0.199 | 0.212 | 0.383 | 0.508 | 0.563 | 0.463 | 0.68 | 0.82 | 0.643 | 0.717 | 0.663 | 0.737 | 0.869 | – | 0.439
NCI-H322M | 0.519 | 0.484 | 0.475 | – | 0.94 | 0.864 | 0.938 | 0.398 | 0.51 | 0.503 | 0.461 | 0.424 | 0.465 | 1.11 | 1.06 | 1.14 | 1.16
EPLC-272H | 0.298 | 0.323 | 0.308 | 0.273 | 1.07 | 1.22 | 1.19 | 0.931 | 0.385 | 0.352 | 0.257 | 0.286 | 0.377 | 1.12 | 1.27 | 1.05 | 1.01
COR-L23 | 0.343 | 0.304 | 0.268 | 0.325 | 0.914 | 0.884 | 0.862 | 0.848 | 0.214 | 0.22 | 0.201 | 0.206 | 0.185 | 1.18 | 1.09 | 0.998 | 1.19
NCI-H2126 | 0.366 | 0.323 | 0.342 | 0.397 | 0.713 | 0.677 | 0.671 | 0.578 | 0.87 | 0.909 | 0.807 | 0.699 | 0.745 | 0.822 | 0.821 | 0.846 | 0.713
LCLC-103H | 0.477 | 0.449 | 0.486 | 0.409 | 1.03 | 0.944 | 1.03 | 0.996 | 0.46 | 0.588 | 0.448 | 0.359 | 0.458 | – | – | – | –
NCI-H1975 | 0.55 | 0.536 | 0.536 | 0.37 | 0.875 | 0.919 | 0.938 | 0.598 | 0.754 | 0.759 | 0.698 | 0.881 | 0.632 | 1.03 | 1.07 | 1.12 | 1.16
NCI-H1793 | 0.334 | 0.237 | 0.325 | 0.241 | 0.994 | 0.843 | 0.813 | – | 0.368 | 0.362 | 0.396 | 0.226 | 0.422 | 0.43 | 0.417 | 0.481 | –
NCI-H2085 | 0.472 | 0.483 | 0.463 | 0.468 | 0.877 | 1.07 | 0.986 | 0.879 | 0.895 | 0.841 | 0.726 | 0.754 | 0.816 | 1.18 | 1.28 | 1.2 | 0.939
NCI-H1299 | – | – | – | – | 0.941 | 0.946 | 0.92 | 1.04 | – | – | – | – | – | 1.01 | 0.998 | 1.06 | 1.05
NCI-H661 | 0.453 | 0.395 | 0.397 | 0.315 | 0.658 | 0.442 | 0.628 | – | 0.342 | 0.36 | 0.35 | 0.359 | 0.412 | – | – | – | –
NCI-H1703 | – | – | – | – | 0.828 | 0.456 | 0.783 | 0.687 | – | – | – | – | – | 1.51 | 1.29 | 1.19 | 0.833
NCI-H596 | – | – | – | – | 1.05 | 1.05 | 1.05 | 1.04 | 0.944 | 1.09 | 1.02 | 1.19 | 0.972 | 1.07 | 1.02 | 0.948 | 0.73
NCI-H650 | 0.392 | 0.32 | 0.314 | 0.323 | 0.997 | – | 0.774 | 0.973 | 0.826 | 0.79 | 0.707 | 0.327 | 0.614 | – | – | – | –
ChaGo-K-1 | 0.95 | 0.946 | 0.93 | 0.925 | – | – | – | – | 0.26 | 0.264 | 0.234 | 0.209 | 0.22 | 1.11 | 0.845 | 0.97 | 1.1
NCI-H522 | 1.06 | 0.737 | 1.03 | 0.812 | – | – | – | – | 0.559 | 0.604 | 0.559 | 0.561 | 0.576 | – | – | – | –
NCI-H1648 | – | 0.235 | 0.21 | 0.267 | – | – | – | – | 0.496 | 0.51 | 0.602 | 0.387 | 0.408 | – | – | – | –
NCI-H1563 | – | – | – | – | 1.22 | 1.25 | 1.07 | 1.1 | – | – | – | – | – | – | – | – | –
NCI-H2342 | 0.498 | 0.49 | 0.719 | 0.438 | – | – | – | – | 0.546 | 0.496 | 0.682 | 0.483 | 0.454 | – | – | – | –
SW 900 | 0.581 | 0.535 | 0.588 | 0.492 | – | – | – | – | 0.62 | 0.675 | 0.547 | 0.457 | 0.516 | – | – | – | –
A549 | – | – | – | – | 0.691 | 0.545 | 0.539 | 0.368 | – | – | – | – | – | 1.28 | 1.15 | 1.19 | 1.2
NCI-H2170 | 0.398 | 0.411 | 0.363 | – | – | – | – | – | 0.747 | 0.857 | 0.69 | 0.648 | 0.769 | 0.655 | 0.555 | 0.534 | –
NCI-H1650 | 0.325 | 0.322 | 0.426 | 0.254 | – | – | – | – | 0.334 | 0.508 | 0.361 | 0.4 | 0.357 | 1.33 | 1.33 | 0.987 | 0.929
ABC-1 | 0.689 | 0.567 | 0.577 | 0.46 | 0.767 | 0.826 | 0.557 | 0.646 | 0.177 | 0.202 | 0.179 | 0.162 | 0.133 | – | – | – | –
